This data set in a line: Gel formation and CD of expected cleavage fragments. In kind it is physicochemical.

For KSLSLS [MDP4a], under “phosphate buffer, physiological pH, in words”, the “Gel formation / self-assembly” value was “no longer able to assemble and form insoluble aggregates”. Besides, for the setting “see supporting information”, the “CD spectrum (secondary structure)” value is listed as “simple random coil signature”.

Values taken from paper PMC2857986 (Journal of the American Chemical Society, 2010).
